# Assay results from patent US12466800B2, “N-((1,2,3,5,6,7-hexahydro-S-indacen-4-yl)carbamoyl)-4, 5, 6, 7-tetrahydrobenzofuran-2-sulfonamide derivatives and related compounds as NLPR3 modulators for the treatment of multiple sclerosis (MS)” (Zomagen Biosciences Ltd, priority 2019, dated 2025).
# Tested on: IL-1b
# Experiment: Mouse BMDM IL-1b Assay
# Type: cell-based
# Settings: Macrophage; mouse bone marrow derived macrophages (C57BL6); 200 ng/mL LPS 3 h, compound 30 min, 5 mM ATP 45 min; IL-1b ELISA of supernatant
# How it was run: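 C57BL6 bone marrow macrophages, differentiated 7 days with 20 ng/mL MCSF, were primed with 200 ng/mL LPS for 3 h at 37° C, given compound for 30 min, then 5 mM ATP for 45 min. Supernatant IL-1b was measured by ELISA against standards; IC50 fitted by Levenberg-Marquardt.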
row,SMILES,IC50
1,"CC(C)c1c(F)c(Cl)c(F)c(C(C)C)c1NC(=O)NS(=O)(=O)c1cc2c(o1)CCCC2(C)O (stereo not drawn) [Compound 103, N-((4-chloro-3,5-difluoro-2,6-diisopropylphenyl)carbamoyl)-4-hydroxy-4-methyl-4,5,6,7-tetrahydrobenzofuran-2-sulfonamide]",100 to 1000 nM
2,"O=C(O)CC1(O)CCCc2oc(S(=O)(=O)NC(=O)Nc3c4c(cc5c3CCC5)CCC4)cc21 (stereo not drawn) [Compound 104, 2-(2-(N-((1,2,3,5,6,7-hexahydro-s-indacen-4-yl)carbamoyl)sulfamoyl)-4-hydroxy-4,5,6,7-tetrahydrobenzofuran-4-yl)acetic acid]",1000 to 10000 nM
3,"CCOC(=O)C#CC1(O)CCCc2oc(S(=O)(=O)NC(=O)Nc3c4c(cc5c3CCC5)CCC4)cc21 (stereo not drawn) [Compound 105, ethyl 3-(2-(N-((1,2,3,5,6,7-hexahydro-s-indacen-4-yl)carbamoyl)sulfamoyl)-4-hydroxy-4,5,6,7-tetrahydrobenzofuran-4-yl)propiolate]",100 to 1000 nM
4,"CC1(O)CCCCc2oc(S(=O)(=O)NC(=O)Nc3c4c(c(F)c5c3CCC5)CCC4)cc21 (stereo not drawn) [Compound 106, N-((8-fluoro-1,2,3,5,6,7-hexahydro-s-indacen-4-yl)carbamoyl)-4-hydroxy-4-methyl-5,6,7,8-tetrahydro-4H-cyclohepta[b]furan-2-sulfonamide]",< 100 nM
5,"CC1(O)CCCCc2oc(S(=O)(=O)NC(=O)Nc3c4c(c(Cl)c5c3CCC5)CCC4)cc21 (stereo not drawn) [Compound 107, N-((8-chloro-1,2,3,5,6,7-hexahydro-s-indacen-4-yl)carbamoyl)-4-hydroxy-4-methyl-5,6,7,8-tetrahydro-4H-cyclohepta[b]furan-2-sulfonamide]",< 100 nM
6,"CC1(O)CCCCc2oc(S(=O)(=O)NC(=O)Nc3c4c(c(Br)c5c3CCC5)CCC4)cc21 (stereo not drawn) [Compound 108, N-((8-bromo-1,2,3,5,6,7-hexahydro-s-indacen-4-yl)carbamoyl)-4-hydroxy-4-methyl-5,6,7,8-tetrahydro-4H-cyclohepta[b]furan-2-sulfonamide]",< 100 nM
7,"CC(C)c1cccc(C(C)C)c1NC(=O)NS(=O)(=O)c1cc2c(o1)CCCCC2(C)O (stereo not drawn) [Compound 109, N-((2,6-diisopropylphenyl)carbamoyl)-4-hydroxy-4-methyl-5,6,7,8-tetrahydro-4H-cyclohepta[b]furan-2-sulfonamide]",100 to 1000 nM
8,"CC(C)c1ccc(F)c(C(C)C)c1NC(=O)NS(=O)(=O)c1cc2c(o1)CCCCC2(C)O (stereo not drawn) [Compound 110, N-((3-fluoro-2,6-diisopropylphenyl)carbamoyl)-4-hydroxy-4-methyl-5,6,7,8-tetrahydro-4H-cyclohepta[b]furan-2-sulfonamide]",100 to 1000 nM
9,"CC(C)c1ccc(Cl)c(C(C)C)c1NC(=O)NS(=O)(=O)c1cc2c(o1)CCCCC2(C)O (stereo not drawn) [Compound 111, N-((3-chloro-2,6-diisopropylphenyl)carbamoyl)-4-hydroxy-4-methyl-5,6,7,8-tetrahydro-4H-cyclohepta[b]furan-2-sulfonamide]",100 to 1000 nM
10,"CN1CCc2oc(S(=O)(=O)NC(=O)Nc3c4c(cc5c3CCC5)CCC4)cc2C1=O [Compound 112, N-((1,2,3,5,6,7-hexahydro-s-indacen-4-yl)carbamoyl)-5-methyl-4-oxo-4,5,6,7-tetrahydrofuro[3,2-c]pyridine-2-sulfonamide]",100 to 1000 nM
11,"CN1CCc2sc(S(=O)(=O)NC(=O)Nc3c4c(cc5c3CCC5)CCC4)cc2C1 [Compound 113, N-((1,2,3,5,6,7-hexahydro-s-indacen-4-yl)carbamoyl)-5-methyl-4,5,6,7-tetrahydrothieno[3,2-c]pyridine-2-sulfonamide]",< 100 nM
12,"CN1CCc2sc(S(=O)(=O)NC(=O)Nc3c4c(cc5c3CCC5)CCC4)cc2C1=O [Compound 114, N-((1,2,3,5,6,7-hexahydro-s-indacen-4-yl)carbamoyl)-5-methyl-4-oxo-4,5,6,7-tetrahydrothieno[3,2-c]pyridine-2-sulfonamide]",100 to 1000 nM
13,"CN1CCc2oc(S(=O)(=O)NC(=O)Nc3c4c(cc5c3CCC5)CCC4)cc2C1 [Compound 115, N-((1,2,3,5,6,7-hexahydro-s-indacen-4-yl)carbamoyl)-5-methyl-4,5,6,7-tetrahydrofuro[3,2-c]pyridine-2-sulfonamide]",< 100 nM
14,"O=C(Nc1c2c(c(F)c3c1CCC3)CCC2)NS(=O)(=O)c1cc2c(o1)CCCCC2O (stereo not drawn) [Compound 116, N-((8-fluoro-1,2,3,5,6,7-hexahydro-s-indacen-4-yl)carbamoyl)-4-hydroxy-5,6,7,8-tetrahydro-4H-cyclohepta[b]furan-2-sulfonamide]",< 100 nM
15,"O=C(Nc1c2c(c(Cl)c3c1CCC3)CCC2)NS(=O)(=O)c1cc2c(o1)CCCCC2O (stereo not drawn) [Compound 117, N-((8-chloro-1,2,3,5,6,7-hexahydro-s-indacen-4-yl)carbamoyl)-4-hydroxy-5,6,7,8-tetrahydro-4H-cyclohepta[b]furan-2-sulfonamide]",< 100 nM
16,"O=C(Nc1c2c(c(Br)c3c1CCC3)CCC2)NS(=O)(=O)c1cc2c(o1)CCCCC2O (stereo not drawn) [Compound 118, N-((8-bromo-1,2,3,5,6,7-hexahydro-s-indacen-4-yl)carbamoyl)-4-hydroxy-5,6,7,8-tetrahydro-4H-cyclohepta[b]furan-2-sulfonamide]",< 100 nM
17,"CC(C)c1ccc(F)c(C(C)C)c1NC(=O)NS(=O)(=O)c1cc2c(o1)CCCCC2O (stereo not drawn) [Compound 119, N-((3-fluoro-2,6-diisopropylphenyl)carbamoyl)-4-hydroxy-5,6,7,8-tetrahydro-4H-cyclohepta[b]furan-2-sulfonamide]",100 to 1000 nM
18,"CC(C)c1ccc(Cl)c(C(C)C)c1NC(=O)NS(=O)(=O)c1cc2c(o1)CCCCC2O (stereo not drawn) [Compound 120, N-((3-chloro-2,6-diisopropylphenyl)carbamoyl)-4-hydroxy-5,6,7,8-tetrahydro-4H-cyclohepta[b]furan-2-sulfonamide]",100 to 1000 nM
19,"CC(C)c1cc(F)cc(C(C)C)c1NC(=O)NS(=O)(=O)c1cc2c(o1)CCCCC2(C)O (stereo not drawn) [Compound 121, N-((4-fluoro-2,6-diisopropylphenyl)carbamoyl)-4-hydroxy-4-methyl-5,6,7,8-tetrahydro-4H-cyclohepta[b]furan-2-sulfonamide]",100 to 1000 nM
20,"CC(C)c1cc(Cl)cc(C(C)C)c1NC(=O)NS(=O)(=O)c1cc2c(o1)CCCCC2(C)O (stereo not drawn) [Compound 122, N-((4-chloro-2,6-diisopropylphenyl)carbamoyl)-4-hydroxy-4-methyl-5,6,7,8-tetrahydro-4H-cyclohepta[b]furan-2-sulfonamide]",< 100 nM
21,"CC1(O)CCCc2sc(S(=O)(=O)NC(=O)Nc3c4c(cc5c3CCC5)CCC4)cc21 (stereo not drawn) [Compound 123, N-((1,2,3,5,6,7-hexahydro-s-indacen-4-yl)carbamoyl)-4-hydroxy-4-methyl-4,5,6,7-tetrahydrobenzo[b]thiophene-2-sulfonamide]",< 100 nM
22,"O=C(Nc1c2c(cc3c1CCC3)CCC2)NS(=O)(=O)c1cc2c(s1)CCCC2O (stereo not drawn) [Compound 124, N-((1,2,3,5,6,7-hexahydro-s-indacen-4-yl)carbamoyl)-4-hydroxy-4,5,6,7-tetrahydrobenzo[b]thiophene-2-sulfonamide]",< 100 nM
23,"O=C(Nc1c2c(cc3c1CCC3)CCC2)NS(=O)(=O)c1cc2c(s1)CCC/C2=N/O [Compound 125, (Z)-N-((1,2,3,5,6,7-hexahydro-s-indacen-4-yl)carbamoyl)-4-(hydroxyimino)-4,5,6,7-tetrahydrobenzo[b]thiophene-2-sulfonamide]",< 100 nM
24,"O=C(O)CCC1(O)CCCc2oc(S(=O)(=O)NC(=O)Nc3c4c(cc5c3CCC5)CCC4)cc21 (stereo not drawn) [Compound 126, 3-(2-(N-((1,2,3,5,6,7-hexahydro-s-indacen-4-yl)carbamoyl)sulfamoyl)-4-hydroxy-4,5,6,7-tetrahydrobenzofuran-4-yl)propanoic acid]",100 to 1000 nM
